The source made the active and inactive calls. No cut-off for these calls is given here.

In data set [1] the target is T1, P2X purinoceptor 7 (Mus musculus) (UniProt Q9Z1M0).
T1 sequence (whole entry): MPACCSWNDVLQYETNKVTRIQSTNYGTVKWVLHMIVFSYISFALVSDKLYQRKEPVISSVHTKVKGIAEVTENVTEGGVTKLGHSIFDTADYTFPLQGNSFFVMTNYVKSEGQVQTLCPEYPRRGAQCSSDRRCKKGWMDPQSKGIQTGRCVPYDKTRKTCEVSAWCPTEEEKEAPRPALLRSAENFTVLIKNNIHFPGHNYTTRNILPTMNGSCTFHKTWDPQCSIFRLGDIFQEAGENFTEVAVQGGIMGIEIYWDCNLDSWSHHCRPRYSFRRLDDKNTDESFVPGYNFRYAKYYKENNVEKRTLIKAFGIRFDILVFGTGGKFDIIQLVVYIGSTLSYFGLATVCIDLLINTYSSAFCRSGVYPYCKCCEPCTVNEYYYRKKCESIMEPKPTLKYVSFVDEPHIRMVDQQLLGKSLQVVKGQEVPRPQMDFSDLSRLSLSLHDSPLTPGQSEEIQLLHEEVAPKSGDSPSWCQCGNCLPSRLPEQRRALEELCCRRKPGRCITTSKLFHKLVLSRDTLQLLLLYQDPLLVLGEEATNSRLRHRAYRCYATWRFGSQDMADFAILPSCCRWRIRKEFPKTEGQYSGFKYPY
Briefly: Antagonist activity at P2X7R in Swiss Webster mouse peritoneal macrophages assessed as inhibition of propidium iodide uptake preincubated for 10 mins propidium iodide addition measured after 5 mins by fluorescence microscopic analysis.

A short description of data set [2]: Apparent permeability across apical to basolateral side in human Caco2 cells at 100 uM measured after 60 mins by lucifer yellow staining based fluorescence assay. The note with it: Caco-2. Format: ADME, cell-based. On the technique in general: Passage across Caco-2 layers is used to estimate intestinal permeability.
Data set [3] in a line: Octanol-PBS distribution co-efficient, log D of the compound at 25 mM at pH 7.4 after 2 hrs by shake flask method. The format is physicochemical.
A further data set addresses T2, P2X purinoceptor 7 (Homo sapiens, UniProt Q99572).
T2 sequence (Q99572 whole entry): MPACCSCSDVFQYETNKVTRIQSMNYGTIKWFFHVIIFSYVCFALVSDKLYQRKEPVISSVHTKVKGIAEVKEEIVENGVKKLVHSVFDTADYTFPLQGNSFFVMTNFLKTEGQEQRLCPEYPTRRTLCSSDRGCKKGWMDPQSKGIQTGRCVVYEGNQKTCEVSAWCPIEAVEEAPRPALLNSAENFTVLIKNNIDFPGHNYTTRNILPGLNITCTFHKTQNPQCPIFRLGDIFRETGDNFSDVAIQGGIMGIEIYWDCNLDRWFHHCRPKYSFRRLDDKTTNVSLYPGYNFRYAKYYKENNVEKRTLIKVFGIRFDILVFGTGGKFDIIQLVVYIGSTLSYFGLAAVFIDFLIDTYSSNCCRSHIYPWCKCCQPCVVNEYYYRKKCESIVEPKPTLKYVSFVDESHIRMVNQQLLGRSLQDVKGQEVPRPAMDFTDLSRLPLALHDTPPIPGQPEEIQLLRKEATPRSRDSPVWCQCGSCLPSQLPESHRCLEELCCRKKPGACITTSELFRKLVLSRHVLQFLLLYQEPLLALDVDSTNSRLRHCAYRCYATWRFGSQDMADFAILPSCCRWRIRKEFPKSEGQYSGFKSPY
Briefly: Antagonist activity at human P2X7R expressed in HEK293 cells assessed as inhibition of ATP-induced […] uptake preincubated for 5 mins followed by ATP induction and measured after 25 mins by fluorescence assay. Format: cell-based.

Data set [4] concerns the target T1, P2X purinoceptor 7 (Mus musculus). Briefly: Antagonist activity at P2X7R in Swiss Webster mouse peritoneal macrophages assessed as inhibition of ATP-induced propidium iodide uptake preincubated for 10 mins followed by ATP induction for 25 mins and subsequent propidium iodide addition for last 5 mins by fluorescence microscopic analysis.
Another data set relates to Peritoneal macrophage. Nature of the data set: Cytotoxicity against Swiss Webster mouse peritoneal macrophages assessed as plasma membrane disruption at 100 uM measured after 24 hrs by dextran rhodamine dye based fluorescence assay. Format: cell-based.
A short description of data set [5]: Intrinsic clearance in mouse liver microsomes assessed per mg protein at 1 uM measured in presence of NADPH. Format: ADME, Microsome. The note with it: read-out: CLH. In general terms: Liver microsomes are a subcellular fraction often used to study metabolism.
The nature of data set [6]: Intrinsic clearance in human liver microsomes assessed per mg protein at 1 uM measured in presence of NADPH. The format is ADME, Microsome. The conditions noted are these: read-out: CLH.

As usually defined, the Papp A→B is the apparent permeability from the apical to the basolateral side of a cell layer. Usually logD stands for the decadic logarithm of the distribution of all forms, ionised or not, between an organic phase and buffer at a given pH. The IC50 is the midpoint of a concentration-inhibition curve. In the case of `O=C1C=C(n2cc(CCCCl)nn2)C(=O)c2c(O)cccc21`, the inhibition entry in data set [1] is “inactive”. The Papp A→B at 1 h, 100 µM in data set [2] was 41.6 ×10⁻⁶ cm/s. Further, in data set [3], the logD at 2 h, 25000 µM was -0.42. The IC50 on P2X purinoceptor 7 amounted to 103 nM. In data set [4], the inhibition result is “Active”. In addition, the Activity result in the data set on Peritoneal macrophage is “Non-Toxic”. Besides, the microsomal CLint at 1 µM in data set [5] worked out at 3.1 µL/min/mg; in data set [6], 1.2 µL/min/mg.
For the compound `CCC(C)(O)c1cn(C2=CC(=O)c3cccc(O)c3C2=O)nn1` (stereo unspecified), the inhibition result in data set [1] and in data set [4] was “inactive” throughout. For the same compound, the Activity result in the data set on Peritoneal macrophage was “Non-Toxic”.
Turning to `CCOc1ccc(Nc2ccc(/C(=C3C=C/C(=[N+](/CC)Cc4cccc(S(=O)(=O)[O-])c4)C=C/3C)c3ccc(N(CC)Cc4cccc(S(=O)(=O)[O-])c4)cc3C)cc2)cc1.[Na+]` [BRILLIANT BLUE G], the inhibition entry in data set [1] was “inactive”. Further, the half-maximal inhibitory concentration (IC50) on P2X purinoceptor 7 came to 1370 nM. For the same compound, the inhibition entry in data set [4] was “Active”. In addition, the Activity result with Peritoneal macrophage is on record as “Non-Toxic”.
With `O=C1C=C(n2cc(-c3ccccc3)nn2)C(=O)c2c(O)cccc21`, the inhibition result in data set [1] and in data set [4] was “inactive” in each case. Further, the Activity entry with Peritoneal macrophage was “Toxic”.
Take `CCCc1cn(C2=CC(=O)c3cccc(O)c3C2=O)nn1`: the inhibition result in data set [1] and in data set [4] was “inactive” throughout. In the data set with Peritoneal macrophage, the Activity entry was “Toxic”.
Regarding `CC(C)CC(C)(O)c1cn(C2=CC(=O)c3cccc(O)c3C2=O)nn1` (stereo unspecified), the inhibition entry in data set [1] and in data set [4] was “inactive” each time. The Activity entry with Peritoneal macrophage is “Non-Toxic”.
As to `COc1ccc(CC(=O)NC(N/C(=N/C#N)Nc2cccc3ncccc23)C(C)(C)C)cc1OC` (stereo unspecified), in data set [1], the inhibition entry was “inactive”. Also, at P2X purinoceptor 7, the IC50 turned out to be 750 nM. Further, in data set [4], the inhibition result is “Active”. The Activity result with Peritoneal macrophage is on record as “Non-Toxic”.
As for `CCCCc1cn(C2=CC(=O)c3cccc(O)c3C2=O)nn1`, the inhibition result in data set [1] is “inactive”. Also, in data set [2], the Papp A→B at 1 h, 100 µM is 71.8 ×10⁻⁶ cm/s. Besides, the logD at 2 h, 25000 µM in data set [3] is -1.24. For the same compound, the IC50 on P2X purinoceptor 7 was determined as 230 nM. Besides, in data set [4], the inhibition result is “Active”. Besides, the Activity entry in the data set on Peritoneal macrophage is listed as “Non-Toxic”. The figures for the microsomal CLint at 1 µM in data set [5] and in data set [6] were 40.6 µL/min/mg and 46.1 µL/min/mg, respectively.

The values are drawn from ChEMBL document CHEMBL4400506, “8-Hydroxy-2-(1H-1,2,3-triazol-1-yl)-1,4-naphtoquinone derivatives inhibited P2X7 Receptor-Induced dye uptake into murine Macrophages” (Bioorg Med Chem, 2019).
